Patent US10344054B2, “Angiotensin-1-receptor antagonists” (Ferring B.V., priority 2016, dated 2019)
Starred links: 1 amine or outer side, 2 acyl side, 3 side chain; linkers in the order of their positions; H or OH if unused. Non-standard residues stand in square brackets, D forms with d. Residues, ends and D or L forms follow the SMILES beside them. X1 = O=C(CN(C[C@H](O)[C@@H](O)[C@H](O)[C@H](O)CO)[*:1])[*:2]; dPhe(2-Cl) = N[C@H](Cc1ccccc1Cl)C(=O)O; dBta = N[C@H](Cc1csc2ccccc12)C(=O)O; Gly(cPent) = N[C@H](C(=O)O)C1CCCC1; Chg = N[C@H](C(=O)O)C1CCCCC1

What was measured:
hAT1R [1] = biological target: T1, hAT1R (Homo sapiens, UniProt P30556); assay: FLIPR calcium flux assay, Part II: antagonist activity against Angiotensin II; type: cell-based; conditions: for Emax: read-out: hAT1R Antagonist Efficacy Antag (%) Ave; for IC50: read-out: hAT1R Antagonist IC50 Ave; on hAT1R Antagonist Efficacy Antag (%) Ave: Angiotensin II 10 nM final concentration
T1 sequence (P30556 1-359): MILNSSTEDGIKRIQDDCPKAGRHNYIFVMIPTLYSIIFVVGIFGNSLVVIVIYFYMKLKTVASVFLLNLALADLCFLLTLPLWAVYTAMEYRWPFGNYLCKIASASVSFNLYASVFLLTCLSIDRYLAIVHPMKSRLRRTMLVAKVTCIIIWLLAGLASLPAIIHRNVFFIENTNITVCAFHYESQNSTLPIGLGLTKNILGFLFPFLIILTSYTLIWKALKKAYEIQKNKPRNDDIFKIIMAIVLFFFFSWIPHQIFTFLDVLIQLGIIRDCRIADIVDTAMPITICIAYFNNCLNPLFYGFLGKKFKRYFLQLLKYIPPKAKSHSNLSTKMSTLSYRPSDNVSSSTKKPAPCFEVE
Protocol: (§1) AT1 receptor (AT1R) agonists increase intracellular flux of calcium ions. AT1R antagonists can reduce the agonist effect. […] Compounds were first tested for agonism (Part I) followed by addition of the AT1R agonist angiotensin II to test for antagonist activity (Part II). This assay used a stable hAT1R expressing cell line (ChanTest hAT1R; ChanTest Corp A628). Intracellular flux of calcium in response to agonist was measured through real-time measurement of fluorescence induced through the interaction of Ca2+ (released from intracellular stores) and calcium-sensitive dye. In Part I, cells were exposed to varying concentrations of test compounds and immediately measured for agonist activity (EC50 and Efficacy).
(§2) ChanTest hAT1R stable cells were maintained in Ham's F12 containing 10% (v/v) heat inactivated fetal bovine serum (FBS-HI), 4 mM Glutamax, 1% NEAA, 50 ng/mL plasmocin, 400 μg/mL G418 at 37° C. under 5% CO2 in a humidified atmosphere.
(§3) For FLIPR assay, ChanTest hAT1R cells were trypsinized with 6 ml of Trypsin EDTA solution and harvested in phenol-red free DMEM containing 10% FBS-HI, 4 mM Glutamax and counted, spun down and resuspended in the same medium. The cell suspension was added to the wells of 384-well black PDL clear bottom plates at 2.5×10^4 cells/well, 20 μl/well.
(§4) Preparation of Loading Buffer:
(§5) • Loading Buffer: 1 vial of Calcium 5 Bulk Assay reagent was dissolved in 100 ml of 1× HBSS-20 mM Hepes buffer. • Probenecid was resuspended at 1 M in 1 M NaOH. Once the probenecid had gone into solution, an equal volume of H2O was added to make a solution of 500 mM followed by a 1:100 dilution in the Loading Buffer for a working concentration of 5 mM. The pH was adjusted to 7.4 using 1 M NaOH. Loading the Cells with Loading Buffer • Cell plates were removed from the incubator and 25 μl of Loading Buffer containing probenecid (5 mM) added to each well. • Plates were incubated for 1 hour at 37° C. under 5% CO2 in a humidified atmosphere. […] The remaining steps of the assay were carried forward by FLIPR Tetra. A baseline reading was taken at 1-second (s) intervals for 10 s followed by the addition of 5 μl of 10× compounds. The compound-induced fluorescence signal was then measured for 3 minutes with readings taken at 1-s intervals. • The cell plate was removed from the FLIPR and set aside for an additional 17 minutes. • The cell plate was then transferred back to the FLIPR Tetra, along with the 384 well Angiotensin II agonist dilution plate. A baseline reading was taken at 1-second (s) intervals for 10 seconds, followed by the addition of 5.5 μl of 10× Angiotensin II agonist. The agonist-induced fluorescence signal was then measured for 3 minutes with readings taken at 1-s intervals. • Overall, each well in the FLIPR assay was composed of the following components in a total volume of 55.5 μl:
(§6) Time-course results from the FLIPR Calcium 5 assay were expressed as relative fluorescence light units (RFU). The maximum minus minimum values (Max−Min) were used to quantify the strength of the signal. Mean RFU were calculated from replicate values and plotted on the y-axis versus compound concentration on a logarithmic scale on the x-axis, and a single-binding site, four parameter concentration response model: (MIN+((MAX−MIN)/(1+((EC50/x)^Hill)))), was used to perform non-linear regression analysis, generating concentration response curves. Reported parameters included agonist potency EC50 (the concentration causing half-maximal agonist response), antagonist potency IC50 (the concentration causing half-maximal inhibition of the agonist response for antagonist compounds) and efficacy (% MPE: percent of the maximal possible effect).

hAT1R [2] = biological target: T1, hAT1R; assay: FLIPR calcium flux assay, Part I: agonist activity; type: cell-based; conditions: ChanTest hAT1R stable cells; % MPE, percent of the maximal possible effect; read-out: hAT1R Agonist Efficacy Agonist (%) Ave
Protocol: as §1, §2, §3, §4, §5, §6

CC(C)[C@H](NC(=O)[C@H](CCCNC(=N)N)NC(=O)CNC[C@H](O)[C@@H](O)[C@H](O)[C@H](O)CO)C(=O)N[C@@H](Cc1ccc(O)cc1)C(=O)N[C@H](C(=O)N[C@@H](Cc1c[nH]cn1)C(=O)N1CCC[C@H]1C(=O)N[C@H](Cc1ccccc1Cl)C(=O)O)C(C)C [Compound 29, Glac-Arg-Val-Tyr-Val-His-Pro-(D-Phe(2-Cl))—OH] (HELM PEPTIDE1{[O=C(CNC[C@H](O)[C@@H](O)[C@H](O)[C@H](O)CO)[*:2]].R.V.Y.V.H.P.[O=C(O)[C@@H](Cc1ccccc1Cl)N[*:1]]}$$$$V2.0)
Emax (hAT1R [1]): 99% | IC50 (hAT1R [1]): 19.5 nM | Emax (hAT1R [2]): 6%

CNCC(=O)N[C@@H](CCCNC(=N)N)C(=O)N[C@H](C(=O)N[C@@H](Cc1ccc(O)cc1)C(=O)N[C@@H](Cc1ccc(O)cc1)C(=O)N[C@@H](Cc1c[nH]cn1)C(=O)N1CCC[C@H]1C(=O)N[C@H](Cc1cccc2ccccc12)C(=O)O)C(C)C [Compound 12, Sar-Arg-Val-Tyr-Tyr-His-Pro-(D-1Nal)-OH]
Emax (hAT1R [1]): 100% | IC50 (hAT1R [1]): 3.4 nM | Emax (hAT1R [2]): 5%

CNCC(=O)N[C@@H](CCCNC(=N)N)C(=O)N[C@H](C(=O)N[C@@H](Cc1ccc(O)cc1)C(=O)N[C@H](C(=O)N[C@@H](Cc1c[nH]cn1)C(=O)N1CCC[C@H]1C(=O)N[C@H](Cc1ccccc1C)C(=O)O)C(C)C)C(C)C [Compound 9, Sar-Arg-Val-Tyr-Val-His-Pro-(D-Phe(2-Me))—OH] (HELM PEPTIDE1{[Sar].R.V.Y.V.H.P.[Cc1ccccc1C[C@@H](N[*:1])C(=O)O]}$$$$V2.0)
Emax (hAT1R [1]): 99% | IC50 (hAT1R [1]): 13.9 nM | Emax (hAT1R [2]): 4%

CC(C)[C@H](NC(=O)[C@H](CCCNC(=N)N)NC(=O)CNC[C@H](O)[C@@H](O)[C@H](O)[C@H](O)CO)C(=O)N[C@@H](Cc1ccc(O)cc1)C(=O)N[C@H](C(=O)N[C@@H](Cc1c[nH]cn1)C(=O)N1CCC[C@H]1C(=O)N[C@H](Cc1ccccc1Cl)C(=O)O)C1CCCC1 [Compound 43, Glac-Arg-Val-Tyr-Cpg-His-Pro-(D-Phe(2-Cl))—OH] (H-[X1]RVY[Gly(cPent)]HP[dPhe(2-Cl)]-OH)
Emax (hAT1R [1]): 100% | IC50 (hAT1R [1]): 16.6 nM | Emax (hAT1R [2]): 6%

CNCC(=O)N[C@@H](CCCNC(=N)N)C(=O)N[C@H](C(=O)N[C@@H](Cc1ccc(O)cc1)C(=O)N[C@@H](Cc1ccc(N)cc1)C(=O)N[C@@H](Cc1c[nH]cn1)C(=O)N1CCC[C@H]1C(=O)N[C@H](Cc1ccccc1Cl)C(=O)O)C(C)C [Compound 20, Sar-Arg-Val-Tyr-Aph-His-Pro-(D-Phe(2-Cl))—OH] (HELM PEPTIDE1{[Sar].R.V.Y.[Nc1ccc(C[C@H](N[*:1])C(=O)[*:2])cc1].H.P.[O=C(O)[C@@H](Cc1ccccc1Cl)N[*:1]]}$$$$V2.0)
Emax (hAT1R [1]): 99% | IC50 (hAT1R [1]): 5.2 nM | Emax (hAT1R [2]): 5%

CC[C@H](C)[C@H](NC(=O)[C@H](Cc1ccc(O)cc1)NC(=O)[C@@H](NC(=O)[C@H](CCCNC(=N)N)NC(=O)CNC)C(C)C)C(=O)N[C@@H](Cc1c[nH]cn1)C(=O)N1CCC[C@H]1C(=O)N[C@H](Cc1ccccc1Cl)C(=O)O [Compound 25, Sar-Arg-Val-Tyr-Ile-His-Pro-(D-Phe(2-Cl))—OH]
Emax (hAT1R [1]): 100% | IC50 (hAT1R [1]): 11.6 nM | Emax (hAT1R [2]): 2%

CC(C)[C@H](NC(=O)[C@H](CCCNC(=N)N)NC(=O)CNC[C@H](O)[C@@H](O)[C@H](O)[C@H](O)CO)C(=O)N[C@@H](Cc1ccc(O)cc1)C(=O)N[C@H](C(=O)N[C@@H](Cc1c[nH]cn1)C(=O)N1CCC[C@H]1C(=O)N[C@H](Cc1ccccc1Cl)C(=O)O)C1CCCCC1 [Compound 31, Glac-Arg-Val-Tyr-Chg-His-Pro-(D-Phe(2-Cl))—OH] (H-[X1]RVY[Chg]HP[dPhe(2-Cl)]-OH)
Emax (hAT1R [1]): 99% | IC50 (hAT1R [1]): 15.7 nM | Emax (hAT1R [2]): 6%

CNCC(=O)N[C@@H](CCCNC(=N)N)C(=O)N[C@H](C(=O)N[C@@H](Cc1ccc(O)cc1)C(=O)N[C@H](C(=O)N[C@@H](Cc1c[nH]cn1)C(=O)N1CCC[C@H]1C(=O)N[C@H](Cc1ccccc1Cl)C(=O)O)[C@@H](C)OC)C(C)C [Compound 21, Sar-Arg-Val-Tyr-Thr(Me)-His-Pro-(D-Phe(2-Cl))—OH]
Emax (hAT1R [1]): 99% | IC50 (hAT1R [1]): 10.6 nM | Emax (hAT1R [2]): 2%

Cc1ccccc1C[C@@H](NC(=O)[C@@H]1CCCN1C(=O)[C@H](Cc1c[nH]cn1)NC(=O)[C@@H](NC(=O)[C@H](Cc1ccc(O)cc1)NC(=O)[C@@H](NC(=O)[C@H](CCCNC(=N)N)NC(=O)CNC[C@H](O)[C@@H](O)[C@H](O)[C@H](O)CO)C(C)C)C(C)C)C(=O)O [Compound 45, Glac-Arg-Val-Tyr-Val-His-Pro-(D-Phe(2-Me))—OH] (HELM PEPTIDE1{[O=C(CNC[C@H](O)[C@@H](O)[C@H](O)[C@H](O)CO)[*:2]].R.V.Y.V.H.P.[Cc1ccccc1C[C@@H](N[*:1])C(=O)O]}$$$$V2.0)
Emax (hAT1R [1]): 101% | IC50 (hAT1R [1]): 18.6 nM | Emax (hAT1R [2]): 6%

CNCC(=O)N[C@@H](CCCNC(=N)N)C(=O)N[C@H](C(=O)N[C@@H](Cc1ccc(O)cc1)C(=O)N[C@@H](Cc1cccs1)C(=O)N[C@@H](Cc1c[nH]cn1)C(=O)N1CCC[C@H]1C(=O)N[C@H](Cc1ccccc1Cl)C(=O)O)C(C)C [Compound 23, Sar-Arg-Val-Tyr-(2-Thi)-His-Pro-(D-Phe(2-Cl))—OH] (HELM PEPTIDE1{[Sar].R.V.Y.[O=C([C@H](Cc1cccs1)N[*:1])[*:2]].H.P.[O=C(O)[C@@H](Cc1ccccc1Cl)N[*:1]]}$$$$V2.0)
Emax (hAT1R [1]): 98% | IC50 (hAT1R [1]): 5.2 nM | Emax (hAT1R [2]): 4%

CC(C)[C@H](NC(=O)[C@H](CCCNC(=N)N)NC(=O)CNC[C@H](O)[C@@H](O)[C@H](O)[C@H](O)CO)C(=O)N[C@@H](Cc1ccc(O)cc1)C(=O)N[C@H](C(=O)N[C@@H](Cc1c[nH]cn1)C(=O)N1CCC[C@H]1C(=O)N[C@H](Cc1csc2ccccc12)C(=O)O)C1CCCCC1 [Compound 41, Glac-Arg-Val-Tyr-Chg-His-Pro-(D-(3-benzothienyl)alanine)-OH] (H-[X1]RVY[Chg]HP[dBta]-OH)
Emax (hAT1R [1]): 101% | IC50 (hAT1R [1]): 19.1 nM | Emax (hAT1R [2]): 5%

CNCC(=O)N[C@@H](CCCNC(=N)N)C(=O)N[C@H](C(=O)N[C@@H](Cc1ccc(O)cc1)C(=O)N[C@@H](Cc1ccccc1)C(=O)N[C@@H](Cc1c[nH]cn1)C(=O)N1CCC[C@H]1C(=O)N[C@H](Cc1cccc2ccccc12)C(=O)O)C(C)C [Compound 16, Sar-Arg-Val-Tyr-Phe-His-Pro-(D-1Nal)-OH] (HELM PEPTIDE1{[Sar].R.V.Y.F.H.P.[O=C(O)[C@@H](Cc1cccc2ccccc12)N[*:1]]}$$$$V2.0)
Emax (hAT1R [1]): 99% | IC50 (hAT1R [1]): 5 nM | Emax (hAT1R [2]): 6%

CNCC(=O)N[C@@H](CCCNC(=N)N)C(=O)N[C@H](C(=O)N[C@@H](Cc1ccc(O)cc1)C(=O)N[C@H](C(=O)N[C@@H](Cc1c[nH]cn1)C(=O)N1CCC[C@H]1C(=O)N[C@H](Cc1ccccc1C(F)(F)F)C(=O)O)C1CCCCC1)C(C)C [Compound 26, Sar-Arg-Val-Tyr-Chg-His-Pro-(D-Phe(2-CF3))—OH] (HELM PEPTIDE1{[Sar].R.V.Y.[O=C([C@@H](N[*:1])C1CCCCC1)[*:2]].H.P.[O=C(O)[C@@H](Cc1ccccc1C(F)(F)F)N[*:1]]}$$$$V2.0)
Emax (hAT1R [1]): 99% | IC50 (hAT1R [1]): 32.9 nM | Emax (hAT1R [2]): 12%
